This note sets out measurements from US8067424B2, “Selective inhibitors for cyclin-dependent kinases” (Emory University, priority 2007, dated 2011).

Common to all, as to assay type: biochemical
One experiment deals with PAK5 (Homo sapiens, UniProt Q9P286). The experiment can be described thus: Kinase screen: PAK5 (PAK7) assay. As to the method: (§1) Generally, the same procedure was used for all assays. Since the total assay volume was 25.5 microliters, 0.5 microliters of inhibitors at 51× assay concentration were added to the plates before any other addition.
(§2) The basic procedure was to add 0.5 microliters inhibitor/control in DMSO to plate. Fifteen microliters of enzyme/substrate/buffer mix were added and incubated for 5 min. Ten microliters MgATP at the relevant concentration were added and incubated for 30 min. The assay was stopped by adding 5 microliters of 3% orthophosphoric acid. The assay was transferred to a p81 filter plate and read in a scintillation counter of 30 sec/well. Note that this assay procedure was not followed for MKK1, which instead involved a two-step assay, and PKC alpha, which required the addition of lipid vesicles.
PAK5 (PAK7) assay: PAK5 (PAK7)(5-20 mU diluted in 50 mM Tris pH 7.5, 0.1 mM EGTA, 0.1% b-mercaptoethanol, 1 mg/ml BSA) was assayed against a substrate peptide ([…]) (SEQ ID NO: 30) in a final volume of 25.5 μl containing 50 mM Tris pH 7.5, 0.05% b-mercaptoethanol, 300 μM substrate peptide, 10 mM magnesium acetate and 0.02 mM [33P-g-ATP] (50-1000 cpm/pmole) and incubated for 30 min at room temperature. Assays were stopped by addition of 5 μl of 0.5 M (3%) orthophosphoric acid and then harvested onto P81 Unifilter plates with a wash buffer of 50 mM orthophosphoric acid.

Another experiment deals with PIM1 (Homo sapiens, UniProt P11309). The experiment can be described thus: Kinase screen: PIM1 assay. As to the method:
as §1, §2
PIM1 assay: PIM1 (5-20 mU diluted in 50 mM Tris pH 7.5, 0.1 mM EGTA, 0.1% b-mercaptoethanol, 1 mg/ml BSA) was assayed against a substrate peptide ([…]) (SEQ ID NO: 23) in a final volume of 25.5 μl containing 50 mM Tris pH 7.5, 0.05% b-mercaptoethanol, 300 μM substrate peptide, 10 mM magnesium acetate and 0.02 mM [33P-g-ATP] (50-1000 cpm/pmole) and incubated for 30 min at room temperature. Assays were stopped by addition of 5 μl of 0.5 M (3%) orthophosphoric acid and then harvested onto P81 Unifilter plates with a wash buffer of 50 mM orthophosphoric acid.

For the next experiment, the target named is JNK1 (Homo sapiens, UniProt P45983). As to the kind of experiment: Kinase screen: JNK1a1/SAPK1c assay. How it is done: as §1, §2
JNK1a1/SAPK1c assay: JNK1a1/SAPK1c (5-20 mU diluted in 50 mM Tris pH 7.5, 0.1 mM EGTA, 1 mg/ml BSA, 0.1% b-mercaptoethanol) was assayed against ATF2 (activating transcription factor in a final volume of 25.5 μl in 50 mM Tris pH 7.5, 0.1 mM EGTA, 0.1% b-Mercaptoethanol, ATF2 (3 μM), 10 mM magnesium acetate and 0.02 mM [33P-g-ATP] (500-1000 cpm/pmole) and incubated for 30 min at room temperature. Assays were stopped by addition of 5 μl of 0.5 M (3%) orthophosphoric acid and then harvested onto P81 Unifilter plates with a wash buffer of 50 mM orthophosphoric acid.

Another experiment concerns the target PKA (Homo sapiens, UniProt P17612). As to the kind of experiment: Kinase screen: PKA assay. As to the method: as §1, §2
PKA assay: PKA (5-20 mU diluted in 20 mM MOPS pH 7.5, 1 mM EDTA, 0.01% Brij35, 0.1% b-mercaptoethanol, 1 mg/ml BSA) was assayed against Kemptide (LRRASLG) (SEQ ID NO: 6) in a final volume of 25.5 μl containing 8 mM MOPS pH 7.5, 0.2 mM EDTA, 30 μM substrate peptide, 10 mM magnesium acetate and 0.005 mM [33P-g-ATP] (50-1000 cpm/pmole) and incubated for 30 min at room temperature. Assays were stopped by addition of 5 μl of 0.5 M (3%) orthophosphoric acid and then harvested onto P81 Unifilter plates with a wash buffer of 50 mM orthophosphoric acid.

A further experiment addresses T1, SGK1 (Homo sapiens, UniProt O00141).
T1 sequence (O00141 1-431): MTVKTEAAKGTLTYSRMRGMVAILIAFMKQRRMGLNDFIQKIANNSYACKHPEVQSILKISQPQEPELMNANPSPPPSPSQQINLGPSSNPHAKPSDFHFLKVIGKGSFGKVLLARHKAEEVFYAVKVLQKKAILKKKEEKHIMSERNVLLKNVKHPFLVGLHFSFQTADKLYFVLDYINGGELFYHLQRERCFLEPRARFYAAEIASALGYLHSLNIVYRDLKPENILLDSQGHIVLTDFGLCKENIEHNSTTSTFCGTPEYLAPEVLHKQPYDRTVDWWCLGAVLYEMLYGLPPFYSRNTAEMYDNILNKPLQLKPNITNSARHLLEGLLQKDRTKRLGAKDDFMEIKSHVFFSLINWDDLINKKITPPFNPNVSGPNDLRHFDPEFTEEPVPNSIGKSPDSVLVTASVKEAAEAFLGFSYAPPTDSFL
As to the kind of experiment: Kinase screen: SGK assay. As to the method: as §1, §2
SGK assay: SGK (5-20 mU diluted in 20 mM MOPS pH 7.5, 1 mM EDTA, 0.01% Brij35, 5% glycerol, 0.1% b-mercaptoethanol, 1 mg/ml BSA) was assayed against a modified Crosstide peptide […] (SEQ ID NO: 4) in a final volume of 25.5 μl containing 8 mM MOPS pH 7.0, 0.2 mM EDTA, 30 μM substrate peptide, 10 mM magnesium acetate and 0.02 mM [33P-g-ATP] (50-1000 cpm/pmole) and incubated for 30 min at room temperature. Assays were stopped by addition of 5 μl of 0.5 M (3%) orthophosphoric acid and then harvested onto P81 Unifilter plates with a wash buffer of 50 mM orthophosphoric acid.

Setting [1] is: 10 micromolar compound, read-out: mean activity remaining (as a percentage of the original activity), PAK5.
[2] abbreviates: 10 micromolar compound, read-out: mean activity remaining (as a percentage of the original activity), PIM1.
[3] abbreviates: 10 micromolar compound, read-out: mean activity remaining (as a percentage of the original activity), JNK1.
[4] abbreviates: 10 micromolar compound, read-out: mean activity remaining (as a percentage of the original activity), PKA.
Where [5] appears, read: 10 micromolar compound, read-out: mean activity remaining (as a percentage of the original activity), SGK1.

One may read the remaining activity as the signal under treatment as a percentage of the control signal.

The structures appear in SMILES notation. Read-outs that look alike come from different tables or passages of the source.

Chain of PAK5 (Q9P286 whole entry): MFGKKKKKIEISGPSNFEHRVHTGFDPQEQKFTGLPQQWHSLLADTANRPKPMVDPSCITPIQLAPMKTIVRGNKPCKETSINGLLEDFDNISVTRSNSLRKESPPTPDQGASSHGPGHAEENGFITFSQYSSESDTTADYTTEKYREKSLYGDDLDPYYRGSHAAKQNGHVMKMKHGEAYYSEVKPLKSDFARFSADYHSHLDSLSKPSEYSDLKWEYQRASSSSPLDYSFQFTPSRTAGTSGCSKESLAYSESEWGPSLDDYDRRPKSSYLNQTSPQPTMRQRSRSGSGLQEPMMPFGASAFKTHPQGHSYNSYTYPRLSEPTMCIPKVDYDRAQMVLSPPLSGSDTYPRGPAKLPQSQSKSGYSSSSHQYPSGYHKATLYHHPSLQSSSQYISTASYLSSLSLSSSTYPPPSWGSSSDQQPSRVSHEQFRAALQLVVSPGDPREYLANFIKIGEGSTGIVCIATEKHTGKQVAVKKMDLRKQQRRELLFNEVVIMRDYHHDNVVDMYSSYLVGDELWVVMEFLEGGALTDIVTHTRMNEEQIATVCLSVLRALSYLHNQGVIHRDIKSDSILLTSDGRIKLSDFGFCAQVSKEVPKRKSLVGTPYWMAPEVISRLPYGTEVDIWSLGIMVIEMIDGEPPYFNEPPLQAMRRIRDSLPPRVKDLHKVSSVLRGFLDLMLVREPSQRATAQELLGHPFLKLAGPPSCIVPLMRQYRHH
Chain of JNK1 (P45983 1-384 isoform P45983-2, species assumed): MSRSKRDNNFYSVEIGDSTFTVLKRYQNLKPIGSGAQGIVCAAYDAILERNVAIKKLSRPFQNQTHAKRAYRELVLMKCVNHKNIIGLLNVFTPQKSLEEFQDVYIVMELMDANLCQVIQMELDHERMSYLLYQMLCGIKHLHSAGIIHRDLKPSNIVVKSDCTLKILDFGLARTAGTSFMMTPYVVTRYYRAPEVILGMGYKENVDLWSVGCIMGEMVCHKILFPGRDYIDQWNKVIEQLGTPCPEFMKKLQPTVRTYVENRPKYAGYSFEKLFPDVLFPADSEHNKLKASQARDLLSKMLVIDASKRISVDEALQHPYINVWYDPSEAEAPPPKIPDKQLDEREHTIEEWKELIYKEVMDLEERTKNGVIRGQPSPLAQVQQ
Chain of PIM1 (P11309 whole entry, species assumed): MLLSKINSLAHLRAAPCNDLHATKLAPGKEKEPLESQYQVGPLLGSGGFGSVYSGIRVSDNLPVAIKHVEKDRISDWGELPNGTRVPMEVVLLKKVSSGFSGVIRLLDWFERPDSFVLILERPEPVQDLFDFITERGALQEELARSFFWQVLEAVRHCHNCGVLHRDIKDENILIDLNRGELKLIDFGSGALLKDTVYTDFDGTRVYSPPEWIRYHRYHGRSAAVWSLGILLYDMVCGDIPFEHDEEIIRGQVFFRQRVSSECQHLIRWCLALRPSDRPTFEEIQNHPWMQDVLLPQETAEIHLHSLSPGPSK

Turning to `CC(C)c1cnn2c(NCc3ccccc3F)cc(NCCCCCN)nc12` [ICEC-0232], on PAK5 (10 micromolar compound), the “mean activity remaining (as a percentage of the original activity), PAK5” value is 81%. For the same compound, the “mean activity remaining (as a percentage of the original activity), PIM1” value at PIM1 (10 micromolar compound) is on record as 110%. On JNK1 (10 micromolar compound), the “mean activity remaining (as a percentage of the original activity), JNK1” value is on record as 87%. For the same compound, the “mean activity remaining (as a percentage of the original activity), PKA” value at PKA (10 micromolar compound) turned out to be 96%. For the same compound, the “mean activity remaining (as a percentage of the original activity), SGK1” value on SGK1 (10 micromolar compound) is given as 50%.
Turning to `CC[C@H](CO)Nc1cc(NCc2ccccc2)n2ncc(C(C)C)c2n1` [ICEC0067], the remaining activity at 10 µM on PAK5 (setting [1]) was 89%; at PIM1 (setting [2]), 107%; at JNK1 (setting [3]) it was 98%; at PKA (setting [4]) it was 93%; on SGK1 (setting [5]), 89%.
`CC(C)c1cnn2c(NCc3ccccc3)cc(NCCCCCCCN)nc12` [BS-181]: the remaining activity at 10 µM came out at 80% at PAK5 (PAK5, 10 μM, read-out: Mean Remaining Enzyme Activity (%)); 88% on PIM1 (PIM1, 10 μM, read-out: Mean Remaining Enzyme Activity (%)); 100% on JNK1 (JNK1, 10 μM, read-out: Mean Remaining Enzyme Activity (%)); 110% on PKA (PKA, 10 μM, read-out: Mean Remaining Enzyme Activity (%)); 42% at SGK1 (SGK1, 10 μM, read-out: Mean Remaining Enzyme Activity (%)).
As for `C=C[C@H](CO)Nc1cc(NCc2ccccc2)n2ncc(C(C)C)c2n1` [ICEC0065], the remaining activity at 10 µM at PAK5 (setting [1]) came out at 81%; at PIM1 (setting [2]), 113%; at JNK1 (setting [3]), 95%; on PKA (setting [4]), 107%; at SGK1 (setting [5]), 84%.
Regarding `CC(C)c1cnn2c(NCc3ccccc3)cc(N[C@@H](CO)[C@H](O)CO)nc12` [ICEC0318, (3S)-3-(7-(Benzylamino)-3-isopropylpyrazolo[1,5-a]pyrimidin-5-ylamino)butane-1,2,4-triol], the remaining activity at 10 µM came out at 65% at PAK5 (setting [1]); 103% at PIM1 (setting [2]); 93% at JNK1 (setting [3]); 93% on PKA (setting [4]); 92% on SGK1 (setting [5]).
